Data taken from patent US20090054376A1, “BENZOFURAN DERIVATIVES WITH THERAPEUTIC ACTIVITIES” (Pharmos Corporation, priority 2005, published 2009).
Entries after “also recorded” stand apart in the source; their conditions may differ. Like-named read-outs stand apart in the source and are kept apart here.

Tests used:
[1] = tested on: pentobarbital-induced sleep; details: 10 mg/kg i.v.; cited from earlier work
[2] = 10 mg/kg i.v.; cited from earlier work
IL-6 = experiment: Cytokine secretion into blood circulation in LPS injected mice, IL-6; format: in vivo, Balb/C female mice; details: 2 mg/kg i.v., LPS 3 mg/kg i.p., plasma 90 minutes after LPS
Protocol: (§1) Balb/C female mice (average body weight 20 g, Harlan, Israel) were injected i.v. at a volume dosage of 5 ml/kg with either vehicle or test compounds at a dose of 2 mg/kg. Each treatment group comprised at least 9 animals. Immediately after compound or control administration, the mice were injected i.p. with 3 mg/kg LPS (E. coli 055:B5, Calbiochem). Ninety minutes after LPS induction, blood samples were collected into heparanized test tubes. Plasma was separated by centrifugation (10,000 rpm for 5 minutes at RT) and stored at −20° C. until assayed. The level of the inflammatory mediator under study, IL-1β, IL-6, IL-10 or TNF-α, was assayed by ELISA techniques.
(§2) The technique used to quantify the amount of a given protein in a liquid sample, either tissue culture supernatant or body fluid, is based on Enzyme Linked ImmunoSorbent Assay (ELISA) methodology. Either commercially available or established in house, the assay is based on the capture of the protein of interest by specific antibodies bound to the bottom of an ELISA plate well. Unbound material is washed away, the captured protein is then exposed to a secondary antibody generally labeled with horseradish peroxidase (HRP) or alkaline phosphatase (ALP). Again the unbound material is washed away, and the samples are then incubated with the appropriate substrate yielding a colorimetric reaction. The reaction is stopped and reading is performed in a spectrophotometer at the appropriate wavelength. Samples are tested at least in duplicate and the appropriate standard curve, consisting of serial dilutions of the recombinant target protein, is incorporated on each plate. The concentration of the protein in the sample is calculated from the standard curve.
(§3) The results are expressed as percent inhibition of secretion, taking into account the maximal cytokine concentration in vehicle “treated” animals and the baseline level in naïve animals. […] Inhibition above 50% was considered highly significant.

TNF-α = experiment: Cytokine secretion into blood circulation in LPS injected mice, TNF-α; format: in vivo, Balb/C female mice; details: 2 mg/kg i.v., LPS 3 mg/kg i.p., plasma 90 minutes after LPS
Protocol: as §1, §2, §3

IL-1β = experiment: Cytokine secretion into blood circulation in LPS injected mice, IL-1β; format: in vivo, Balb/C female mice; details: 2 mg/kg i.v., LPS 3 mg/kg i.p., plasma 90 minutes after LPS
Protocol: as §1, §2, §3

[3] = tested on: visceral pain writhing responses; experiment: Visceral pain, acetic acid induced writhing responses; format: in vivo, Male ICR mice; details: single dose 2 mg/kg i.v., compared to untreated group
[4] = tested on: CB1 related cannabimimetic activity; experiment: Safety: body temperature, catalepsy, spontaneous locomotor activity, elevated plus maze, sensitivity to touch; format: in vivo, ICR male mice; details: 2 mg/kg i.v.
Protocol: In the present study, impact of compounds of the invention on the central nervous system was measured by monitoring the body temperature, catalepsy and spontaneous locomotor activity of rodents. These activities are part of the Tetrad assays which are indicative, if all parameters are affected, of CB1 mediated activity. In addition, lack of CNS psychomimetic effect was assessed in the elevated plus maze model. Finally, sensitivity to touch was determined in order to evaluate peripheral CB1 related activity.
ICR male mice (average body weight 25 g, Harlan, Israel) were administered the compounds of the invention i.v. at a dose of 2 mg/kg and at a volume dose of 5 ml/kg. The psychoactive cannabinoid HU-210 was used as positive control at the 100-fold lower dose of 0.02 mg/kg i.v. The following measurements were made starting 15 minutes after compound administration. All tests were completed for each animal within approximately 10 minutes. Rectal temperature was monitored using a thermistor probe (YSI model 400, USA). Spontaneous locomotion was assessed using the open field methodology. The number of squares crossed by the animals were recorded and analyzed during a period of three minutes. At the end of the open field test, the animals were tested for catalepsy symptoms. This was carried out by gently forcing the animal to stand on its hind paws when its front paws are holding on an elevated beam. The time for the animal to step down of the beam was measured in seconds. A normal animal withdraws the beam immediately whereas cataleptic animal tend to stay on the beam. The longer the animal stays leaning on the beam, the more cataleptic the animal is. The behavior of the animals was then assessed in the elevated plus maze. The elevated plus maze consists of two open arms and two arms that are enclosed by high walls (arms 30×10 cm, wall height 20 cm). The elevated plus maze is usually elevated 80 cm above the floor. The mouse is placed on the maze head facing an open arm, and the time spent in the different compartments of the maze (open arms, closed arms and central area) are measured for the next 5 minutes. Results are expressed as percent of the time spent in the open arms, normal animals preferring to stay in the closed arms of the maze. Finally, animals were gently touched by an observer blinded for the treatment group and their sensitivity scored according to the following scale: 0 not sensitive, 1 sensitive and 2 highly sensitive. Results are expressed as average±SEM. At the end of the study, the animals were euthanized.

[5] = tested on: carrageenan induced inflammatory pain and paw edema; experiment: Inflammatory pain and paw edema induced by carrageenan; format: in vivo, Male Sprague Dawley rats; details: 10 mg/kg i.p.; for inhibition in vivo at 10 mg/kg: Rattus norvegicus, ip
How it was run: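 Male Sprague Dawley rats (~200 g) received 0.1 ml 2% λ-carrageenan subplantar in the right paw; compounds given i.p. at 3, 10 or 20 mg/kg (some p.o.) immediately after. Thermal (Hargreaves) latency, mechanical threshold, paw thickness and volume measured at 0 and 3 h; values are inter-paw differences ([…], ΔForce), volume as % of vehicle.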

IL-10 = experiment: Cytokine secretion into blood circulation in LPS injected mice, IL-10; format: in vivo, Balb/C female mice; details: 2 mg/kg i.v., LPS 3 mg/kg i.p., plasma 90 minutes after LPS
Protocol: as §1, §2, §3

[6] = tested on: visceral pain writhing responses; experiment: Tolerance: repeated administration in the model of Visceral Pain; format: in vivo, mice; details: tested day 11 at 2 mg/kg i.v.
Protocol: Male ICR mice (average body weight 25 g, Harlan, Israel) were pretreated by i.v. injection at volume dose of 5 ml/kg of vehicle, control and test compounds at various doses. Other routes of administration were tested for selected compounds including i.m. or s.c. injections at volume dose of 2.5 ml/kg and p.o. gavage at volume dose of 5 ml/kg. Compounds were dissolved in CREMOPHOR®:Ethanol and diluted 1:20 in saline prior to injection or gavage. Compounds administered i.v. were injected fifteen minutes before pain induction, whereas compounds administered i.m., s.c. or p.o. were supplied thirty minutes before pain induction, unless otherwise indicated. Each treatment group, except for controls comprising at least 30 animals, was composed of at least 6 animals. Fifteen or thirty minutes after drug administration, depending on the route of administration, the mice were injected i.p. with 10 ml/kg of 0.6% acetic acid and the number of visceral pain related behaviors (writhing movements globally defined as WR, i.e. stretching, contractions of the abdomen accompanied by an elongation of the body and extension of the hind limbs) was counted over a period of 5 minutes, starting 5 minutes after the acetic acid administration. These visceral pain related behaviors were globally defined as writhing responses (WR). The results are expressed as mean number of writhing responses ±SEM. Data were analyzed using analysis of variance (ANOVA) followed by post-hoc Fisher test.
Briefly compounds of the invention were administered at 10 mg/kg i.p. daily for 10 days and their analgesic activity was tested on day 11 as described in Example 17 (namely at 2 mg/kg i.v.). […] Each treatment group comprised 10 animals.

SMILES: C=C(C)[C@@H]1CC[C@](C)(O)[C@H]2Oc3cc(CCCCC)cc(O)c3[C@@H]12 [CBE]
- prolongation of pentobarbital-induced sleep [1]: nor does it prolong pentobarbital-induced sleep
- effect on body temperature of mice [2]: does not affect body temperature of mice

SMILES: CCCCCCC(C)(C)c1cc(O)c2c(c1)OC1C(O)CCCC21 (stereo not shown) [Compound C6S-5, 3-(1,1-Dimethylheptyl)-5a,6,7,8,9,9a-hexahydro-dibenzofuran-1,6-diol]
- Inhibition of cytokine secretion into blood circulation, IL-6 (IL-6): 85%
- Inhibition of cytokine secretion into blood circulation, TNF-α (TNF-α): NO (NO indicates that the compound tested did not significantly affect the level of cytokine in plasma of LPS injected mice and that its activity is comparable to vehicle, within ±20% from this control)
- Inhibition of cytokine secretion into blood circulation, IL-1β (IL-1β): NO (NO indicates that the compound tested did not significantly affect the level of cytokine in plasma of LPS injected mice and that its activity is comparable to vehicle, within ±20% from this control)
- inhibition in vivo at 2 mg/kg ([3]; Mus musculus, iv, read-out: Percent Inhibition of Visceral Pain Writhing Responses): 35%
- adverse cannabimimetic activities in any of the parameters monitored [4]: None
- inhibition in vivo at 10 mg/kg ([5]; 3 hours after carrageenan, reduction in paw swelling, read-out: Percent Inhibition of Inflammatory Pain Responses, Edema): 56%
- inhibition in vivo at 10 mg/kg ([5]; 3 hours, mechanical stimulus, read-out: Percent Inhibition of Inflammatory Pain Responses, ΔForce): 34%
- inhibition in vivo at 10 mg/kg ([5]; 3 hours, thermal stimulus, read-out: Percent Inhibition of Inflammatory Pain Responses, ΔLT): 61%
- Inhibition of cytokine secretion into blood circulation, IL-10 (IL-10): 84%

SMILES: CCCCCCC(C)(C)c1cc(O)c2c(c1)OC1CCCCCC21 (stereo not drawn) [Compound C7S-1, 2-(1,1-dimethylheptyl)-5,6,7,8,9,9a-hexahydro-4bH-10-oxa-benzo[α]azulen-4-ol]
- Inhibition of cytokine secretion into blood circulation, IL-6 (IL-6): 82%
- Inhibition of cytokine secretion into blood circulation, TNF-α (TNF-α): NO (NO indicates that the compound tested did not significantly affect the level of cytokine in plasma of LPS injected mice and that its activity is comparable to vehicle, within ±20% from this control)
- Inhibition of cytokine secretion into blood circulation, IL-1β (IL-1β): NO (NO indicates that the compound tested did not significantly affect the level of cytokine in plasma of LPS injected mice and that its activity is comparable to vehicle, within ±20% from this control)
- Percent Inhibition of Visceral Pain Writhing Responses [3]: 76%
- adverse cannabimimetic activities in any of the parameters monitored [4]: None
- decrease of rectal temperature ([4]; non-significant): about 1.2 °C
- rectal temperature ([4]; vehicle 38.88±0.11° C.): 37.45±0.39 °C
- Percent Inhibition of Inflammatory Pain Responses, Edema ([5]; 3 hours after carrageenan, reduction in paw swelling): 60%
- Percent Inhibition of Inflammatory Pain Responses, ΔForce ([5]; 3 hours, mechanical stimulus): 13%
- Percent Inhibition of Inflammatory Pain Responses, ΔLT ([5]; 3 hours, thermal stimulus): 0%
- Inhibition of cytokine secretion into blood circulation, IL-10 (IL-10): 82%

SMILES: CN1CC[C@]23c4c5ccc(O)c4O[C@H]2[C@@H](O)C=C[C@H]3[C@H]1C5 [morphine, reference compound]
- writhing responses on day 11 ([6]; repeated administration daily for 10 days (10 mg/kg i.p.), vehicle 29.75±1.09): 9.60±2.85
- reduction in pain response after repeated administration ([6]; repeated administration daily for 10 days): 68%
- Percent Inhibition of Visceral Pain Writhing Responses ([3]; 2 mg/kg): eradicated the pain response; also recorded: totally eliminated the pain response
